Data: patent US20250092031A1, “RIPK3 INHIBITORS AND METHODS OF USE” (Momentum Therapeutics, Inc., priority 2023, published 2025)

Assays:
Human HT-29 cells = experiment: Necroptosis inhibition assay in HT-29 cells (hTNFα + zVAD + SMAC mimetic, Sytox Green/Hoechst); type: cell-based; conditions: 10 ng/ml hTNFα, 20 μM zVAD and 100 nM SMAC mimetic, 6 hours, Sytox/Hoechst positive cells, read-out: HT29 necroptosis inhibition IC50
Protocol: Human HT-29 cells (ATCC-HTB-38) were seeded at 10,000 cells/well in a 96-well plate. Cells were treated 48 hours after seeding with 10 ng/ml hTNFα (R&D Systems), 20 μM zVAD (ChemShuttle) and 100 nM SMAC mimetic (MedChem Express) in the presence of different concentrations of compounds ranging from […] to 0.01 μM. Cells treated with 0.1% DMSO or cells treated with TNFα+zVAD+SMAC mimetic were used as control and vehicle respectively.
Assay plates containing cells were incubated for 6 hours at 37° C. and 5% CO2. Necroptosis was assessed using Sytox Green Nucleic Acid Stain (Invitrogen) and Hoechst staining. After incubation, 100 μL of Sytox dye at 2 μM (2×) diluted in HBSS 1× was added to each well. At the same time, Hoechst stain is added to a final concentration of 10 μM and incubated for 15 min at room temperature. Images were taken for Sytox and Hoechst using the Cytation 5 microplate reader with DAPI and GFP filter cubes (Biotek). Sytox and Hoechst positive cells were counted with CellProfiler software.
(§1) Percentage of necroptosis inhibition was calculated as the percent compared to control and vehicle conditions which correspond to 100% and 0% respectively. The half-maximum necroptosis inhibition (IC50) levels were calculated using GraphPad Prism software and are shown in Table 3 (NT represents compound not tested).

Murine L929 cells = experiment: Necroptosis inhibition assay in L929 cells (mTNFα + zVAD, Sytox Green); type: cell-based; conditions: Mus musculus, 10 ng/ml mTNFα and 20 μM zVAD, 6 hours, Sytox Green fluorescence
Protocol: Murine L929 cells (ATCC-CCL-1) were seeded at 10,000 cells/well in a 96-well plate. Cells were treated 48 hours after seeding with 10 ng/ml mTNFα (R&D Systems) and 20 μM zVAD (ChemShuttle) in the presence of different concentrations of compounds ranging from […] to 0.01 μM. Cells treated with 0.1% DMSO or cells treated with TNFα+zVAD were used as control and vehicle respectively.
Assay plates containing cells were incubated for 6 hours at 37° C. and 5% CO2. Necroptosis was assessed using Sytox Green Nucleic Acid Stain (Invitrogen). After incubation, 100 μL of Sytox dye at 2 μM (2×) diluted in HBSS 1× was added in each well and incubated for 15 min at room temperature. Fluorescence (500ex/530em) was recorded using the Cytation 5 microplate reader (Biotek).
as §1

| SMILES | IC50 (Human HT-29 cells) [nM] | IC50 (Murine L929 cells) [nM] |
| --- | --- | --- |
| O=C(c1ccc(-c2ccc3c(Nc4ccc5scnc5c4)ccnc3c2)c(F)c1)N1CCNCC1 [Compound 250, (4-(4-(benzo[d]thiazol-5-ylamino)quinolin-7-yl)-3-fluorophenyl)(piperazin-1-yl)methanone] | 2530 | 344 |
| O=C(c1ccc(-c2ccc3nccc(Nc4ccc5scnc5c4)c3c2)c(F)c1)N1CC2(CCOCC2)C1 [Compound 251, (4-(4-(benzo[d]thiazol-5-ylamino)quinolin-6-yl)-3-fluorophenyl)(7-oxa-2-azaspiro[3.5]nonan-2-yl)methanone] | 822 | 582 |
| O=C(c1ccc(-c2ccc3c(Nc4ccc5scnc5c4)ccnc3c2)c(F)c1)N1CC2(CCOCC2)C1 [Compound 252, (4-(4-(benzo[d]thiazol-5-ylamino)quinolin-7-yl)-3-fluorophenyl)(7-oxa-2-azaspiro[3.5]nonan-2-yl)methanone] | 244 | 260 |
| c1cc(Nc2ccc3scnc3c2)c2ccc(-c3ccc(C4CCNCC4)cc3)cc2n1 [Compound 253, N-(7-(4-(piperidin-4-yl)phenyl)quinolin-4-yl)benzo[d]thiazol-5-amine] | 755 | 271 |
| O=C1CN(Cc2ccc(-c3ccc4nccc(Nc5ccc6[nH]ncc6c5)c4c3)c(F)c2)CCN1 [Compound 271, 4-(4-(4-(1H-indazol-5-ylamino)quinolin-6-yl)-3-fluorobenzyl)piperazin-2-one] |  | > 10000 |
| CN1CCN(C(=O)c2ccc(-c3ccc4nccc(Nc5ccc6scnc6c5)c4c3)c(F)c2)CC1=O [Compound 273, 4-(4-(4-(benzo[d]thiazol-5-ylamino)quinolin-6-yl)-3-fluorobenzoyl)-1-methylpiperazin-2-one] | 780 | 1100 |
| CN1CCN(C(=O)c2ccc(-c3ccc4c(Nc5ccc6scnc6c5)ccnc4c3)c(F)c2)CC1=O [Compound 274, 4-(4-(4-(benzo[d]thiazol-5-ylamino)quinolin-7-yl)-3-fluorobenzoyl)-1-methylpiperazin-2-one] | 1190 | 515 |
| O=C1CN(C(=O)c2ccc(-c3ccc4nccc(Nc5ccc6scnc6c5)c4c3)c(F)c2)CCN1 [Compound 275, 4-(4-(4-(benzo[d]thiazol-5-ylamino)quinolin-6-yl)-3-fluorobenzoyl)piperazin-2-one] | 689 | 3820 |
| CC1CN(C(=O)c2ccc(-c3ccc4nccc(Nc5ccc6scnc6c5)c4c3)c(F)c2)CCN1 (stereo not shown) [Compound 286, (4-(4-(benzo[d]thiazol-5-ylamino)quinolin-6-yl)-3-fluorophenyl)(3-methylpiperazin-1-yl)methanone] | 75.8 | 852 |
| O=C1CN(Cc2ccc(-c3ccc4nccc(Nc5ccc6occc6c5)c4c3)c(F)c2)CCN1 [Compound 287, 4-(4-(4-(benzofuran-5-ylamino)quinolin-6-yl)-3-fluorobenzyl)piperazin-2-one] |  | > 10000 |
| Cn1ncc2cc(Nc3ccnc4ccc(-c5ccc(CN6CCNC(=O)C6)cc5F)cc34)ccc21 [Compound 288, 4-(3-fluoro-4-(4-(1-methyl-1H-indazol-5-ylamino)quinolin-6-yl)benzyl)piperazin-2-one] |  | > 10000 |
| O=C1CN(Cc2ccc(-c3ccc4nccc(Nc5ccc6oncc6c5)c4c3)c(F)c2)CCN1 [Compound 289, 4-(4-(4-(benzo[d]isoxazol-5-ylamino)quinolin-6-yl)-3-fluorobenzyl)piperazin-2-one] |  | > 10000 |
| Fc1cc(CN2CCC3(CCNCC3)CC2)ccc1-c1ccc2nccc(Nc3ccc4scnc4c3)c2c1 [Compound 290, N-(6-(4-((3,9-diazaspiro[5.5]undecan-3-yl)methyl)-2-fluorophenyl)quinolin-4-yl)benzo[d]thiazol-5-amine] | < 1000 | < 10000 |
| Fc1cc(CN2CCC3(CCNCC3)CC2)ccc1-c1ccc2c(Nc3ccc4scnc4c3)ccnc2c1 [Compound 291, N-(7-(4-((3,9-diazaspiro[5.5]undecan-3-yl)methyl)-2-fluorophenyl)quinolin-4-yl)benzo[d]thiazol-5-amine] | < 1000 | < 10000 |
| C[C@@H]1CN(C(=O)c2ccc(-c3ccc4nccc(Nc5ccc6scnc6c5)c4c3)c(F)c2)C[C@H](C)N1 [Compound 293, (4-(4-(benzo[d]thiazol-5-ylamino)quinolin-6-yl)-3-fluorophenyl)((3R,5S)-3,5-dimethylpiperazin-1-yl)methanone] | 32.3 | 347 |
| O=C(c1ccc(-c2ccc3nccc(Nc4ccc5scnc5c4)c3c2)nc1)N1CC2(CNC2)C1 [Compound 294, (6-(4-(benzo[d]thiazol-5-ylamino)quinolin-6-yl)pyridin-3-yl)(2,6-diazaspiro[3.3]heptan-2-yl)methanone] |  | > 10000 |
| Fc1cc(OC2CCNCC2)ccc1-c1ccc2nccc(Nc3ccc4scnc4c3)c2c1 [Compound 295, N-(6-(2-fluoro-4-(piperidin-4-yloxy)phenyl)quinolin-4-yl)benzo[d]thiazol-5-amine] | 147 | 781 |
| Cc1cc(-c2ccc3nccc(Nc4ccc5scnc5c4)c3c2)c(F)cc1C(=O)N1CCNCC1 [Compound 296, (4-(4-(benzo[d]thiazol-5-ylamino)quinolin-6-yl)-5-fluoro-2-methylphenyl)(piperazin-1-yl)methanone] | 16.9 | 1290 |
| Cc1cc(-c2ccc3c(Nc4ccc5scnc5c4)ccnc3c2)c(F)cc1C(=O)N1CCNCC1 [Compound 297, (4-(4-(benzo[d]thiazol-5-ylamino)quinolin-7-yl)-5-fluoro-2-methylphenyl)(piperazin-1-yl)methanone] | 174 | 282 |
| O=C(c1ccc(-c2ccc3nccc(Nc4ccc5scnc5c4)c3c2)c(F)c1)N1CC2CNCC2C1 (stereo not shown) [Compound 298, (4-(4-(benzo[d]thiazol-5-ylamino)quinolin-6-yl)-3-fluorophenyl)(hexahydropyrrolo[3,4-c]pyrrol-2(1H)-yl)methanone] |  | < 10000 |
| O=C(c1ccc(-c2ccc3c(Nc4ccc5scnc5c4)ccnc3c2)c(F)c1)N1CC2CNCC2C1 (stereo not shown) [Compound 302, (4-(4-(benzo[d]thiazol-5-ylamino)quinolin-7-yl)-3-fluorophenyl)(hexahydropyrrolo[3,4-c]pyrrol-2(1H)-yl)methanone] |  | < 10000 |
| O=C(c1ccc(-c2ccc3nccc(Nc4ccc5scnc5c4)c3c2)c(F)c1)N1C[C@H]2C[C@@H](C1)N2 [Compound 304, (4-(4-(benzo[d]thiazol-5-ylamino)quinolin-6-yl)-3-fluorophenyl)((1R,5S)-3,6-diazabicyclo[3.1.1]heptan-3-yl)methanone] |  | < 10000 |
| O=C(c1ccc(-c2ccc3nccc(Nc4ccc5scnc5c4)c3c2)c(F)c1)N1[C@@H]2CNC[C@H]1C2 [Compound 308, (4-(4-(benzo[d]thiazol-5-ylamino)quinolin-6-yl)-3-fluorophenyl)((1R,5S)-3,6-diazabicyclo[3.1.1]heptan-6-yl)methanone] |  | < 10000 |
| Fc1cc(OC2CCNCC2)ccc1-c1ccc2c(Nc3ccc4scnc4c3)ccnc2c1 [Compound 309, N-(7-(2-fluoro-4-(piperidin-4-yloxy)phenyl)quinolin-4-yl)benzo[d]thiazol-5-amine] |  | < 10000 |
| O=C(c1ccc(-c2ccc3c(Nc4ccc5scnc5c4)ccnc3c2)c(F)c1)N1CCC2(CCNC2)CC1 [Compound 314, (4-(4-(benzo[d]thiazol-5-ylamino)quinolin-7-yl)-3-fluorophenyl)(2,8-diazaspiro[4.5]decan-8-yl)methanone] |  | < 10000 |
| Fc1cc(CN2CCNCC2)ccc1-c1ccc2nccc(Nc3ccc4sccc4c3)c2c1 [Compound 385, N-(benzo[b]thiophen-5-yl)-6-(2-fluoro-4-(piperazin-1-ylmethyl)phenyl)quinolin-4-amine] |  | > 10000 |
| Fc1cc(CN2CCNCC2)ccc1-c1ccc2nccc(Nc3ccc4occc4c3)c2c1 [Compound 386, N-(benzofuran-5-yl)-6-(2-fluoro-4-(piperazin-1-ylmethyl)phenyl)quinolin-4-amine] |  | > 10000 |
| Fc1cc(CN2CCNCC2)ccc1-c1ccc2nccc(Nc3ccc4[nH]ncc4c3)c2c1 [Compound 387, 6-(2-fluoro-4-(piperazin-1-ylmethyl)phenyl)-N-(1H-indazol-5-yl)quinolin-4-amine] |  | > 10000 |
| Cn1ncc2cc(Nc3ccnc4ccc(-c5ccc(CN6CCNCC6)cc5F)cc34)ccc21 [Compound 388, 6-(2-fluoro-4-(piperazin-1-ylmethyl)phenyl)-N-(1-methyl-1H-indazol-5-yl)quinolin-4-amine] |  | > 10000 |
